{"source": "patent US10220040B2", "about": "“Compounds, compositions and methods useful for cholesterol mobilization” (Cerenis Therapeutics Holding SA, priority 2010, dated 2019)", "key": {"C57Bl6 mice": {"test_system": "C57Bl6 mice", "assay": "Dose response on bile physiology after single oral gavage in mice", "assay_type": "in vivo", "procedure": "FIG. 16A-J: Increase of bile secretion following activation of P2Y13r pathway in mice. C57Bl/6J mice (n=10) were fasted for 2 h and then intravenously injected with Cangrelor® or Compound IIa (10 nmoles/kg). Four hours later the gallbladders were removed and analyzed for: Bile acids content (FIG. 16A); Bile cholesterol content (FIG. 16B). C57Bl/6J mice (n=10) were fasted for 2 h followed by single oral dose of P2Y13r agonist Compound IIa at 3, 30 or 300 μg/kg. Six hours later bile acids contents (FIG. 16C); bile cholesterol content (FIG. 16D), and bile acid content of liver (FIG. 16E) were evaluated using HPLC and enzymatic kits for gallbladers. Plasma samples were collected at time 0 and after 6 h of treatment, then analyzed for: total cholesterol (▴), unesterified cholesterol (●), esterified cholesterol (▪) and HDL cholesterol (▾) determined using either enzymatic kits or Lipoprint® for HDL cholesterol (FIG. 16F). C57Bl/6J mice (n=5) were intravenously injected with [^3H]-cholesterol-labelled mouse HDL (FIG. 16G), [^3H]-cholesteryl oleate-labelled mouse HDL (FIG. 16H) or [^3H]-cholesterol-labelled mouse LDL (FIG. 16I), and with Cangrelor® or Compound IIa (10 nmoles/kg). Radioactivity present in the liver was determined 2 hours later for the HDL or 5 hours later for the LDL. Cholesterol content of feces from treated animals (100 μg/kg) was determined by Charge aerosol detection (FIG. 16J). *p<0.05, **p<0.01.\nThe dose response after oral gavage was determined for illustrative compounds of the invention. The chosen doses were 0.003, 0.03 and 0.3 mg/kg. The selected compounds of the invention were administrated by oral gavage and 6 hours later the mice are sacrificed and the bile content was analyzed (FIGS. 6-11).\nBile acids were diluted in PBS (1:5000) and the concentration was measured according to the manufacturer protocol with slight modifications. Concentrations of bile acids in the standard curve were varied from […] and the enzymatic reaction was performed for 20 minutes. 4 μl of 1:5000 bile dilution was used for concentration determination.\nBile phospholipids were measured according to the manufacturer protocol. Briefly, the standards were varied from 0 to 20 μg/ml and 4 μl of bile was measured in the assay. The reaction was performed for 5 minutes at 37° C.\nBile phospholipids were measured according to the manufacturer protocol. Briefly, the standards were varied from 0 to 60 μg/ml and 10 μl of bile (dilution 1:10) was measured in the assay. The reaction was performed for 5 minutes at 37° C."}, "human P2Y13 receptor": {"molecular_target": "human P2Y13 receptor (Homo sapiens (Human), UniProt Q9BPV8)", "sequence (Q9BPV8 whole entry)": "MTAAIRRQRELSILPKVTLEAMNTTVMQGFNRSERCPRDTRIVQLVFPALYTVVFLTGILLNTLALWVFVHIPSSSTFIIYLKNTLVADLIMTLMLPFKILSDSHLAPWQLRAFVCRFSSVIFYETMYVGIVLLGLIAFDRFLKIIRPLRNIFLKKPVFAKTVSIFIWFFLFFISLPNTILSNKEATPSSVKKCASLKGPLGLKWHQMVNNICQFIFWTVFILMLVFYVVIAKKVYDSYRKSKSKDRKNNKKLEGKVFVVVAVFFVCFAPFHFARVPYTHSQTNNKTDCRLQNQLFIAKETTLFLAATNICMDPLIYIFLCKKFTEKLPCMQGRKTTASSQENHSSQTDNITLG", "assay": "Ca++ flux agonist assay on P2Y13 receptor transfected 1321N1 cells", "assay_type": "cell-based", "details": "Table 4, measured from data of Figure 2; comma is decimal sign", "procedure": "Compounds were assayed for their agonist activity on P2Y13 GPCR transfected cells using a Ca++ flux assay (associated to fluorescent dye detection) with the Reference Compound as positive reference. Two cell lines, 1321N1-P2Y13 stably expressing human P2Y13 receptor, and 1321N1 parental cell line as control, were used in this assay. 1321N1 Parental and 1321N1 P2Y13 were seeded into T25 flasks at 3 million cells per flask, respectively. Cells were incubated at 37 degrees Celsius in 5% CO2 overnight. The day after, cells were transfected with Gqi5 protein using Fugene transfection reagent (Roche's Fugene Reagent).\nAfter 24 hours of transfection, cells were collected from flasks and seeded in 384-well plates at 8000 cells per well. The assays were carried out 48 hours after Gqi5 transfection.\nMethods: The Ca++ flux assay was conducted according to the manufacturer's protocol (Molecular Devices FLIPR Calcium 4 Assay kit (R8142). Briefly, cell culture media were aspirated from the wells and replaced with 25 μL of Hank's buffer or PBS buffer. 25 μL of Ca++ dye was added into each assay well. The plate was incubated for 1 hour at 37° C. in 5% CO2. After the incubation, the plate was transferred to FlexStation III (FlexStation III (Molecular Devices)). The compounds were automatically injected into each well."}}}
{"compound": "CN(C)c1ncc(CN2CCC(c3cc(O)nc(N4CCOCC4)n3)CC2)cn1", "note": "[Compound IIa, 6-[1-(2-Dimethylaminopyrimidin-5-ylmethyl)-piperidin-4-yl]-2-morpholin-4-yl-pyrimidin-4-ol]", "values": [{"measurement": "plasma cholesterol and HDL", "setting": "C57Bl6 mice; after 4 h of treatment, exception: unesterified cholesterol", "value": "not significantly affected"}, {"measurement": "dose at which an effect on bile acids, bile cholesterol and bile phospholipids was shown", "setting": "C57Bl6 mice; oral gavage 0.003, 0.03 and 0.3 mg/kg, bile analyzed 6 hours later", "value": 3, "unit": "µg/kg"}, {"measurement": "bile acid and cholesterol secretion in the bile", "setting": "C57Bl6 mice; oral gavage, doses as low as 30 μg/kg", "value": "stimulation"}, {"measurement": "liver bile acid content", "setting": "C57Bl6 mice; oral, 30 μg/kg", "value": "increase"}, {"measurement": "EC50", "setting": "human P2Y13 receptor", "value": 40.3, "unit": "µM"}]}
